Source: ChEMBL document CHEMBL5608239, “Structure, Function, and Activity of Small Molecule and Peptide Inhibitors of Protein Arginine Methyltransferase 1” (J Med Chem, 2024)
Numbered stars: 1 amine (or outer) side, 2 acyl side, 3 side chain; on linkers, the order of the positions; unused ones are H or OH. Square brackets hold non-standard residues; d marks the D form. Peptide text beside a SMILES is read from it. X1 = N=C(NCCC[C@H](N[*:1])C(=O)[*:2])NCCC[C@H]1O[C@@H](n2cnc3c(N)ncnc32)[C@H](O)[C@@H]1O

Columns and labels:
[1] = biological target: T1, Protein arginine N-methyltransferase 1 (Homo sapiens, UniProt Q99873); experiment: Inhibition of 6His-tagged human recombinant PRMT1 using Histone H4 as substrate
T1 sequence (Q99873 whole entry): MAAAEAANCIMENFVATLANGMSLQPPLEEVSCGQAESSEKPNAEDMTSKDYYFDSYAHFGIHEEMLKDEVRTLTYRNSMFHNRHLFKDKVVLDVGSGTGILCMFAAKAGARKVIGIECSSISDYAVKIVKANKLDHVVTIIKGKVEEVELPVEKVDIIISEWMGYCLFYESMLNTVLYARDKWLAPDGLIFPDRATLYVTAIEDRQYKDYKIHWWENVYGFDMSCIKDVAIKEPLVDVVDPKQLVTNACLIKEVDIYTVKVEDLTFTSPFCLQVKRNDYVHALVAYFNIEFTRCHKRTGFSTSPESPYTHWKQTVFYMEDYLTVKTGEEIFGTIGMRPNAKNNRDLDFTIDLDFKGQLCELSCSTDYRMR

[2] = biological target: T1, Protein arginine N-methyltransferase 1; experiment: Inhibition of human PRMT1 using [3H]methylated biotin-labeled peptide as substrate by scintillation proximity assay
[3] = biological target: T1, Protein arginine N-methyltransferase 1
[4] = biological target: T1, Protein arginine N-methyltransferase 1; experiment: Inhibition of PRMT1 (unknown origin) using Histone H4 as substrate incubated for 1 hr by fluorescence based analysis

Compound: C[C@@H](O)[C@H](NC(=O)CNC(=O)CNC(=O)[C@H](CCCNC(=N)NCCC[C@H](N)C(=O)O)NC(=O)[C@H](CO)NC(=O)[C@@H](NC(=O)CNC(=O)CNC(=O)[C@@H](N)Cc1c[nH]c2ccccc12)[C@@H](C)O)C(=O)NCC(=O)NCC(=O)N[C@@H](Cc1c[nH]c2ccccc12)C(=O)O
- IC50 [1]: > 500 µM

Compound: CC(=O)N[C@@H](CO)C(=O)NCC(=O)N[C@@H](CCCNC(=N)NCCC[C@H]1O[C@@H](n2cnc3c(N)ncnc32)[C@H](O)[C@@H]1O)C(=O)NCC(=O)N[C@@H](CCCCN)C(=O)NCC(=O)NCC(=O)N[C@@H](CCCCN)C(N)=O (Ac-SG[X1]GKGGK-NH2)
- IC50 [2]: 1.33 µM

Compound: N=C(NCCCCC(N)C(N)=O)NCCCSC[C@H]1O[C@@H](n2cnc3c(N)ncnc32)[C@H](O)[C@@H]1O (some centres undefined)
- IC50 [3]: 3 µM
- IC50 [4]: 3 µM
